Data taken from patent US8048862B2, “Macrocyclic inhibitors of hepatitis C virus replication” (priority 2008, dated 2011).
pEC50, pIC50: −log10 of the molar value.

Tests used:
NS3/NS4 complexes = NS3/NS4 complexes (Hepatitis C virus genotype 1a, UniProt P27958); assay: NS3/NS4 inhibition activity (IC50); format: biochemical; conditions: Table 2, read-out: IC50
Summary of the method: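 Buffer: 50 mM Tris-HCl (pH 7.5), 10 mM DTT, 25 μM NS4A peptide, 0.6 mM LDAO and 15% glycerol. Assays were run at 23 °C with preformed NS3/NS4 complex, and the compound concentration giving inhibition was derived as an IC50.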

hepatitis C replicon = hepatitis C replicon EC50; format: cell-based; conditions: Hepatitis C virus; Table 2; hepatitis C replicon; read-out: EC50
Description: NS3-NS4 inhibition activity can be determined using known assay methods.

NS3/NS4 complexes, sequence (P27958 1027-1657): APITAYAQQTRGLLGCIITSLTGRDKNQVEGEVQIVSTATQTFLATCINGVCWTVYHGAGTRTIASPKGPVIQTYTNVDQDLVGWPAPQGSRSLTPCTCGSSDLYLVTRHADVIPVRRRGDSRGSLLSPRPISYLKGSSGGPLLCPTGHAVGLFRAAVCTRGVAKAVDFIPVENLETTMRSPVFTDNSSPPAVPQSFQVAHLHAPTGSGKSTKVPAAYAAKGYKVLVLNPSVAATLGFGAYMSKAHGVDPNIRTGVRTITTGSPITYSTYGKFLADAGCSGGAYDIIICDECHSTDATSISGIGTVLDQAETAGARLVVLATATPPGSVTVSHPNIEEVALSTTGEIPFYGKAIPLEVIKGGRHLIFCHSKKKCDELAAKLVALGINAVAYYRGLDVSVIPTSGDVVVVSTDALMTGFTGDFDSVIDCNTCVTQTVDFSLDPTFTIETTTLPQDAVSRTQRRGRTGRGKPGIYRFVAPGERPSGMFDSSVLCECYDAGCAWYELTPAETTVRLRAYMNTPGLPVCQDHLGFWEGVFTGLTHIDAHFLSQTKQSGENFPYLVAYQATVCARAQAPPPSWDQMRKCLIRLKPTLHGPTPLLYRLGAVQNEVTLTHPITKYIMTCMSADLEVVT
NS3/NS4 complexes, sequence (P27958 1658-1711): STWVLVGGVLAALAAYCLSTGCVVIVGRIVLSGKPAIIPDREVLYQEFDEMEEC

SMILES | pIC50 (NS3/NS4 complexes) | pEC50 (hepatitis C replicon)
COc1ccc2c(O[C@@H]3C[C@H]4C(=O)N[C@]5(C(=O)NS(=O)(=O)C6(C)CC6)C[C@H]5/C=C\CCCCC[C@H](Nc5ccccc5)C(=O)N4C3)cc(-c3nc(C(C)C)cs3)nc2c1C [Compound 359] | > 8.00 | > 8.00
COc1ccc2c(O[C@@H]3C[C@H]4C(=O)N[C@]5(C(=O)NS(=O)(=O)C6(C)CC6)C[C@H]5/C=C\CCCCC[C@H](Nc5cccc(C(F)(F)F)c5)C(=O)N4C3)cc(-c3nc(C(C)C)cs3)nc2c1C [Compound 360] | > 8.00 | > 8.00
COc1ccc2c(O[C@@H]3C[C@H]4C(=O)N[C@]5(C(=O)NS(=O)(=O)C6(C)CC6)C[C@H]5/C=C\CCCCC[C@H](Nc5cccc(F)c5)C(=O)N4C3)cc(-c3nc(C(C)C)cs3)nc2c1C [Compound 361] | > 8.00 | > 8.00
COc1ccc2c(O[C@@H]3C[C@H]4C(=O)N[C@]5(C(=O)NS(=O)(=O)C6(C)CC6)C[C@H]5/C=C\CCCCC[C@H](Nc5ccc(F)cc5)C(=O)N4C3)cc(-c3nc(C(C)C)cs3)nc2c1C [Compound 362] | > 8.00 | > 8.00
COc1ccc2c(O[C@@H]3C[C@H]4C(=O)N[C@]5(C(=O)NS(=O)(=O)C6(C)CC6)C[C@H]5/C=C\CCCCC[C@H](Nc5cc(F)cc(F)c5)C(=O)N4C3)cc(-c3nc(C(C)C)cs3)nc2c1C [Compound 363] | > 8.00 | 7.12 to 8.00
CC(C)n1c(O[C@@H]2C[C@H]3C(=O)N[C@]4(C(=O)NS(=O)(=O)C5(C)CC5)C[C@H]4/C=C\CCCCC[C@H](Nc4ccccc4)C(=O)N3C2)nc2ccccc21 [Compound 365] | > 8.00 | > 8.00
COc1ccc2c(O[C@@H]3C[C@H]4C(=O)N[C@]5(C(=O)NS(=O)(=O)C6CC6)C[C@H]5/C=C\CCCCC[C@H](Nc5cccc(C(F)(F)F)c5)C(=O)N4C3)cc(-c3nc(C(C)C)cs3)nc2c1C [Compound 369] | > 8.00 | > 8.00
COc1ccc2c(O[C@@H]3C[C@H]4C(=O)N[C@]5(C(=O)NS(=O)(=O)C6(C)CC6)C[C@H]5/C=C\CCCCC[C@H](Nc5ccc(F)c(C(F)(F)F)c5)C(=O)N4C3)cc(-c3nc(C(C)C)cs3)nc2c1C [Compound 374] | > 8.00 | > 8.00
O=C1N[C@]2(C(=O)NS(=O)(=O)C3CC3)C[C@H]2/C=C\CCCCC[C@H](Nc2ccc(F)c(C(F)(F)F)c2)C(=O)N2C[C@H](Oc3nccc4ccccc34)C[C@@H]12 [Compound 375] | > 8.00 | > 8.00
CC(C)n1c(O[C@@H]2C[C@H]3C(=O)N[C@]4(C(=O)NS(=O)(=O)C5(C)CC5)C[C@H]4/C=C\CCCCC[C@H](Nc4cc(F)cc(C(F)(F)F)c4)C(=O)N3C2)nc2ccccc21 [Compound 376] | > 8.00 | > 8.00
COc1ccc2c(O[C@@H]3C[C@H]4C(=O)N[C@]5(C(=O)NS(=O)(=O)C6CC6)C[C@H]5/C=C\CCCCC[C@H](Nc5cccc(OC(F)(F)F)c5)C(=O)N4C3)cc(-c3nc(C(C)C)cs3)nc2c1C [Compound 377] | > 8.00 | > 8.00
COc1ccc2c(O[C@@H]3C[C@H]4C(=O)N[C@]5(C(=O)NS(=O)(=O)C6(C)CC6)C[C@H]5/C=C\CCCCC[C@H](Nc5cccc(OC(F)(F)F)c5)C(=O)N4C3)cc(-c3nc(C(C)C)cs3)nc2c1C [Compound 378] | > 8.00 | > 8.00
COc1ccc2c(O[C@@H]3C[C@H]4C(=O)N[C@]5(C(=O)NS(=O)(=O)C6(C)CC6)C[C@H]5/C=C\CCCCC[C@H](Nc5nc6ccccc6o5)C(=O)N4C3)cc(-c3nc(C(C)C)cs3)nc2c1C [Compound 379] | > 8.00 | > 8.00
CC1(S(=O)(=O)NC(=O)[C@@]23C[C@H]2/C=C\CCCCC[C@H](Nc2nc4ccccc4o2)C(=O)N2C[C@H](Oc4nccc5ccccc45)C[C@H]2C(=O)N3)CC1 [Compound 380] | > 8.00 | 7.12 to 8.00
CC1(S(=O)(=O)NC(=O)[C@@]23C[C@H]2/C=C\CCCCC[C@H](Nc2ccc(F)c(F)c2)C(=O)N2C[C@H](Oc4nccc5ccccc45)C[C@H]2C(=O)N3)CC1 [Compound 381] | > 8.00 | 7.12 to 8.00
CCn1c(O[C@@H]2C[C@H]3C(=O)N[C@]4(C(=O)NS(=O)(=O)C5CC5)C[C@H]4/C=C\CCCCC[C@H](Nc4cc(F)cc(C(F)(F)F)c4)C(=O)N3C2)nc2ccccc21 [Compound 388] | > 8.00 | 7.12 to 8.00
CC(C)n1c(O[C@@H]2C[C@H]3C(=O)N[C@]4(C(=O)NS(=O)(=O)N(C)C)C[C@H]4/C=C\CCCCC[C@H](Nc4cc(F)cc(C(F)(F)F)c4)C(=O)N3C2)nc2ccccc21 [Compound 391] | > 8.00 | 7.12 to 8.00

SMILES | pIC50 (NS3/NS4 complexes) | pEC50 (hepatitis C replicon)
COc1ccc2c(O[C@@H]3C[C@H]4C(=O)N[C@]5(C(=O)NS(=O)(=O)C6(C)CC6)C[C@H]5/C=C\CCCCC[C@H](Nc5cccc(OC(F)(F)F)c5)C(=O)N4C3)cc(-c3ccccc3)nc2c1 [Compound 392] | > 8.00 | > 8.00
CC(C)n1c(O[C@@H]2C[C@H]3C(=O)N[C@]4(C(=O)NS(=O)(=O)C5CC5)C[C@H]4/C=C\CCCCC[C@H](Nc4cc(F)cc(C(F)(F)F)c4)C(=O)N3C2)nc2ccccc21 [Compound 393] | > 8.00 | 7.12 to 8.00
CCn1c(O[C@@H]2C[C@H]3C(=O)N[C@]4(C(=O)NS(=O)(=O)C5(C)CC5)C[C@H]4/C=C\CCCCC[C@H](Nc4ccccc4)C(=O)N3C2)nc2ccccc21 [Compound 395] | > 8.00 | > 8.00
CC1(S(=O)(=O)NC(=O)[C@@]23C[C@H]2/C=C\CCCCC[C@H](Nc2cc(F)cc(C(F)(F)F)c2)C(=O)N2C[C@H](Oc4nc(-c5ccccc5)cs4)C[C@H]2C(=O)N3)CC1 [Compound 396] | > 8.00 | < 6.30
CC(C)(C)Cn1c(O[C@@H]2C[C@H]3C(=O)N[C@]4(C(=O)NS(=O)(=O)C5(C)CC5)C[C@H]4/C=C\CCCCC[C@H](Nc4cc(F)cc(C(F)(F)F)c4)C(=O)N3C2)nc2ccccc21 [Compound 401] | > 8.00 | 6.30 to 7.12
CC(C)Cn1c(O[C@@H]2C[C@H]3C(=O)N[C@]4(C(=O)NS(=O)(=O)C5(C)CC5)C[C@H]4/C=C\CCCCC[C@H](Nc4cc(F)cc(C(F)(F)F)c4)C(=O)N3C2)nc2ccccc21 [Compound 402] | > 8.00 | 7.12 to 8.00
COc1ccc2c(O[C@@H]3C[C@H]4C(=O)N[C@]5(C(=O)NS(=O)(=O)C6CC6)C[C@H]5/C=C\CCCCC[C@H](Nc5ccccc5)C(=O)N4C3)cc(-c3nc(C(C)C)cs3)nc2c1C [Compound 407] | > 8.00 | > 8.00
COc1ccc2c(O[C@@H]3C[C@H]4C(=O)N[C@]5(C(=O)NS(=O)(=O)C6CC6)C[C@H]5/C=C\CCCCC[C@H](Nc5ccc(F)cc5)C(=O)N4C3)cc(-c3nc(C(C)C)cs3)nc2c1C [Compound 409] | > 8.00 | > 8.00
COc1ccc2c(O[C@@H]3C[C@H]4C(=O)N[C@]5(C(=O)NS(=O)(=O)C6CC6)C[C@H]5/C=C\CCCCC[C@H](Nc5cccc(F)c5)C(=O)N4C3)cc(-c3nc(C(C)C)cs3)nc2c1C [Compound 411] | > 8.00 | > 8.00
COc1ccc2c(O[C@@H]3C[C@H]4C(=O)N[C@]5(C(=O)NS(=O)(=O)N(C)C)C[C@H]5/C=C\CCCCC[C@H](Nc5ccccc5)C(=O)N4C3)cc(-c3nc(C(C)C)cs3)nc2c1C [Compound 412] | > 8.00 | > 8.00
COc1ccc2c(O[C@@H]3C[C@H]4C(=O)N[C@]5(C(=O)NS(=O)(=O)N(C)C)C[C@H]5/C=C\CCCCC[C@H](Nc5ccc(F)cc5)C(=O)N4C3)cc(-c3nc(C(C)C)cs3)nc2c1C [Compound 415] | > 8.00 | > 8.00
COc1ccc2c(O[C@@H]3C[C@H]4C(=O)N[C@]5(C(=O)NS(=O)(=O)N(C)C)C[C@H]5/C=C\CCCCC[C@H](Nc5cccc(F)c5)C(=O)N4C3)cc(-c3nc(C(C)C)cs3)nc2c1C [Compound 417] | > 8.00 | > 8.00
COc1ccc2c(O[C@@H]3C[C@H]4C(=O)N[C@]5(C(=O)NS(=O)(=O)C6CC6)C[C@H]5/C=C\CCCCC[C@H](Nc5cc(F)cc(C(F)(F)F)c5)C(=O)N4C3)cc(-c3nc(C(C)C)cs3)nc2c1C [Compound 439] | > 8.00 | > 8.00
CC1(S(=O)(=O)NC(=O)[C@@]23C[C@H]2/C=C\CCCCC[C@H](Nc2cccc(OC(F)(F)F)c2)C(=O)N2C[C@H](Oc4nccc5ccccc45)C[C@H]2C(=O)N3)CC1 [Compound 444] | > 8.00 | 7.12 to 8.00
COc1ccc2c(O[C@@H]3C[C@H]4C(=O)N[C@]5(C(=O)NS(=O)(=O)C6(C)CC6)C[C@H]5/C=C\CCCCC[C@H](Nc5ccc(C(F)(F)F)cc5)C(=O)N4C3)cc(-c3nc(C(C)C)cs3)nc2c1C [Compound 445] | > 8.00 | > 8.00
COc1ccc2c(O[C@@H]3C[C@H]4C(=O)N[C@]5(C(=O)NS(=O)(=O)C6CC6)C[C@H]5/C=C\CCCCC[C@H](Nc5ccc(C(F)(F)F)cc5)C(=O)N4C3)cc(-c3nc(C(C)C)cs3)nc2c1C [Compound 446] | > 8.00 | > 8.00
COc1ccc2c(O[C@@H]3C[C@H]4C(=O)N[C@]5(C(=O)NS(=O)(=O)C6CC6)C[C@H]5/C=C\CCCCC[C@H](Nc5ccc(F)c(C(F)(F)F)c5)C(=O)N4C3)cc(-c3nc(C(C)C)cs3)nc2c1C [Compound 447] | > 8.00 | > 8.00
